According to patent US11400080B2, “Use of sirolimus to treat exudative age-related macular degeneration with persistent edema” (Santen Pharmaceutical Co., Ltd., priority 2016, dated 2022):

What was measured:
[1] = test system: exudative AMD with persistent intraretinal or subretinal edema despite previous intravitreal anti-VEGF treatment; assay: Example 1: randomized, subject-masked trial of intravitreal sirolimus versus anti-VEGF (OCT CST and BCVA); type: in vivo, human; details: baseline to months 3-6, subjects who completed the study through month 6, FIG. 2 and FIG. 4
Excerpt: This study was a single-center, randomized, subject-masked trial over the course of six months with eight scheduled visits. Study Population. Thirty human patients, who were 50 years of age or older at baseline were recruited according to the following inclusion and exclusion criteria. If both eyes met all of the inclusion/exclusion criteria the eye with the worse BCVA at baseline was selected as the study eye. If both eyes met all of the inclusion/exclusion criteria and BCVA values were identical for both eyes, the right eye was selected as the study eye. Study Treatment (Group 1). […] Sham intravitreal injection given at month 1, month 3 and month 5. […] Intravitreal injection of anti-VEGF per patient/investigator choice (pegaptanib, aflibercept, bevacizumab or ranibizumab) given at baseline and thereafter monthly per clinical criteria. Sham intravitreal injections given when retreatment criterion was not met at month 1 or any later visit. […] Both intraocular pressure and the perfusion of the optic nerve head were monitored and managed appropriately after injection. […] The primary efficacy endpoint includes change in edema from baseline to month 6 as measured by CST on Heidelberg OCT. change in BCVA from baseline to month 6; Continuous variables will be summarized with means and standard deviations and medians with min and max values and categorical variables with frequencies and percentages. […]

[2] = test system: persistent edema due to neovascular AMD; assay: Example 2: randomized, subject-masked trial of intravitreal sirolimus plus anti-VEGF (aflibercept) versus anti-VEGF alone (OCT CST and BCVA); type: in vivo, human
Excerpt: This study was a single-center, randomized, subject-masked trial over the course of […] with eleven scheduled visits. Study Population. Twenty human patients, who were 50 years of age or older at baseline were recruited according to the following inclusion and exclusion criteria. If both eyes met all of the inclusion/exclusion criteria the eye with the best potential for visual improvement (worse BCVA) at baseline was selected as the study eye. If both eyes met all of the inclusion/exclusion criteria and BCVA values were identical for both eyes, the right eye was selected as the study eye. Study Treatment (Group 1). […] Intravitreal injections of EYL (aflibercept) given at weeks 1, 8, 16, 24 and 32. […] Comparator Treatment (Group 2). Intravitreal injection of EYL (aflibercept) given at baseline and weeks 8, 16, 24 and 32. […] Both intraocular pressure and the perfusion of the optic nerve head were monitored and managed appropriately after injection. […] Retreatment Criteria: Subjects in both groups received retreatment (or sham) at each scheduled visit as long as continued subretinal edema, intraretinal edema or active choroidal neovascularization was present. change in edema from baseline to week 36 as measured by CST on Heidelberg OCT. change in BCVA from baseline to week 36; and number of injections required to control choroidal neovascularization based on volume of subretinal fluid.

Compound	average change in edema from baseline (central subfield thickness, CST, by OCT) [1]	subjects in whom the need for anti-VEGF treatment to control edema was reduced ([2]; combination group, ten patients, EYL injections deferred (sham))	improvement in visual acuity (BCVA) ([2]; change from baseline, FIG. 5)
CO[C@H]1C[C@@H]2CC[C@@H](C)[C@@](O)(O2)C(=O)C(=O)N2CCCC[C@H]2C(=O)O[C@H]([C@H](C)C[C@@H]2CC[C@@H](O)[C@H](OC)C2)CC(=O)[C@H](C)/C=C(\C)[C@@H](O)[C@@H](OC)C(=O)[C@H](C)C[C@H](C)/C=C/C=C/C=C/1C [sirolimus]	−30 to −40	40%	
aflibercept [EYL]			+0.8 letters
